Where two headings read alike, the source gives them in different places.
Assays:
[1] = target: GDP-bound KRAS wild-type protein (Homo sapiens, UniProt P01116); assay: Binding to KRAS by surface plasmon resonance (SPR), dissociation constant KD
In short: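 Measured at 30°C: SPR with GDP-loaded, E. coli-expressed biotin-Avi RAS captured (~100–300 RU), ascending 75 s compound injections, HBS pH 7.4 with GDP, MgCl2, 4% DMSO. KD from 1:1 fit.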

[2] = target: GDP-bound NRAS wild-type protein (Homo sapiens, UniProt P01111); assay: Binding to NRAS by surface plasmon resonance (SPR), KD and KD ratio to KRAS
In short: (§1)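 Compound binding is evaluated by SPR single-cycle kinetics, with concentrations added intermittently from low to high for 75 s each. Target surfaces carry GDP-loaded biotinylated Avi-RAS at about 100–300 RU, regenerated after each cycle; temperature 30°C. A 1:1 binding model gives KD.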

HRAS wild-type protein = HRAS wild-type protein (Homo sapiens, UniProt P01112); assay: Binding to HRAS by surface plasmon resonance (SPR), KD and KD ratio to KRAS
In short: as §1

[3] = test system: human lung cancer strain NCI-H441; assay: NCI-H441 cell proliferation inhibitory activity (CellTiter-Glo, 4 days); assay type: cell-based; conditions: read-out: NCl-H441 IC50
In short: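 Proliferation was scored by […] measured after the reagent was added to cultures kept at 37°C in 5% carbon dioxide.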

[4] = ratio of KD for GDP-bound NRAS wild-type protein to KD for KRAS
[5] = ratio of KD for HRAS wild-type protein to KD for KRAS
[6] = Single Cycle Kinetics, 1:1 binding model
[7] = ratio of KD with respect to GDP-bound NRAS wild-type protein to KD with respect to KRAS
[8] = ratio of KD with respect to HRAS wild-type protein to KD with respect to KRAS
[9] = 50% proliferation inhibitory concentration, four days

Sequence of HRAS wild-type protein (P01112 whole entry): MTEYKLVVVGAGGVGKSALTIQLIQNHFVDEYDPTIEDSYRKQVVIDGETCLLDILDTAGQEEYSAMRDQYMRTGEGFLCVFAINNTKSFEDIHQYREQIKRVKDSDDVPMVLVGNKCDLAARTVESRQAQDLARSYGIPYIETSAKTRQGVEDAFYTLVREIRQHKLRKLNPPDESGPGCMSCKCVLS
Sequence of GDP-bound KRAS wild-type protein (P01116 1-188 isoform P01116-2): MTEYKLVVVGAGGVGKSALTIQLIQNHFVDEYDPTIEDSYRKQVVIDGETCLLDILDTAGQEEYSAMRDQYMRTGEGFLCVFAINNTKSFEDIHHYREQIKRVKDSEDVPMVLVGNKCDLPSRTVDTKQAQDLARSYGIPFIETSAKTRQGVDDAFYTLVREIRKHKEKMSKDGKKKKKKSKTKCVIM
Sequence of GDP-bound NRAS wild-type protein (P01111 whole entry): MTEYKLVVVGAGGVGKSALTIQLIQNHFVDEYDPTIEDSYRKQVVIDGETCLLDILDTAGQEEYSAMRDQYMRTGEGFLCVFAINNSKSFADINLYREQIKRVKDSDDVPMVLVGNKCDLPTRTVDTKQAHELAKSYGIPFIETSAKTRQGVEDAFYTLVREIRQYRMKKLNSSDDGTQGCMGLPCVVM

| SMILES | Kd ([1]; 1:1 binding model) [nM] | IC50 ([3]; NCI-H441 cells, 4 days) [nM] | Kd ([1]; Single Cycle Kinetics) [nM] | Kd [1, 6] [nM] | IC50 [3, 9] [nM] | NRAS /KRAS [2, 4] | HRAS /KRAS (HRAS wild-type protein; [5]) | NRAS /KRAS [2, 7] | HRAS /KRAS (HRAS wild-type protein; [8]) |
| --- | --- | --- | --- | --- | --- | --- | --- | --- | --- |
| CC[C@H](C)[C@@H]1NC(=O)[C@H](COC)N(C)C(=O)C[C@@H](C(=O)N(C)C)N(C)C(=O)[C@H](C2CCCC2)N(C)C(=O)C2(CC(C)(C)C2)NC(=O)[C@@H]2C[C@@H](OC3CCC3)CN2C(=O)[C@H](CCc2cc(F)c(C(F)(F)F)c(F)c2)NC(=O)CN(C)C(=O)[C@H](CC2CCC(F)(F)CC2)N2CC/C=C\C[C@@H](C2=O)N(C)C(=O)CN(C2CC2)C1=O [PP2622] | 0.53 | 43.8 |  |  |  | A (a compound having 10 or more and less than 20 is denoted as A) | B (a compound having 3 or more and less than 10 is denoted as B) |  |  |
| CC[C@H](C)[C@@H]1NC(=O)[C@H](CC(C)C)N(C)C(=O)C[C@@H](C(=O)N2CCOCC2)N(C)C(=O)[C@H](C2CCCC2)N(C)C(=O)C2(CCC2)NC(=O)[C@@H]2C[C@@H](OCC(C)C)CN2C(=O)[C@H](CCc2cc(F)c(C(F)(F)F)c(F)c2)NC(=O)CN(C)C(=O)[C@H](Cc2ccc(C(F)(F)F)cc2)N2CCCC[C@@H](C2=O)N(C)C(=O)CN(C)C1=O [PP1160] |  |  |  | 0.032 | 18.4 |  |  | B (a compound having 3 or more and less than 10 is denoted as B) | B (a compound having 3 or more and less than 10 is denoted as B) |
| CCC[C@H]1C(=O)N[C@@H]([C@@H](C)CC)C(=O)N(C2CC2)CC(=O)N(C)[C@H]2C/C=C\CCN(C2=O)[C@@H](Cc2ccc(C)cc2)C(=O)N(C)CC(=O)N[C@@H](CCc2ccc(Cl)c(Cl)c2)C(=O)N2C[C@H](OC3CCC3)C[C@H]2C(=O)NC2(CC(C)(C)C2)C(=O)N(C)[C@@H](C2CCCC2)C(=O)N(C)[C@H](C(=O)N(C)C)CC(=O)N1C [PP2616] | 0.8 | 66.4 |  |  |  | A (a compound having 10 or more and less than 20 is denoted as A) | A (a compound having 10 or more and less than 20 is denoted as A) |  |  |
| CCO[C@@H]1C[C@H]2C(=O)NC3(CC(C)(C)C3)C(=O)N(C)[C@@H](C3CCCC3)C(=O)N(C)[C@H](C(=O)N(C)CC)CC(=O)N(C)[C@@H]([C@H](C)OC)C(=O)N[C@@H]([C@@H](C)CC)C(=O)N(C3CC3)CC(=O)N(C)[C@H]3C/C=C\CCN(C3=O)[C@@H](Cc3ccc(C)cc3)C(=O)N(C)CC(=O)N[C@@H](CCc3ccc(C(F)(F)F)c(OC)c3)C(=O)N2C1 [PP3228] |  | 41.5 | 0.81 |  |  | A (a compound having 10 or more and less than 20 is denoted as A) | A (a compound having 10 or more and less than 20 is denoted as A) |  |  |
| CCO[C@@H]1C[C@H]2C(=O)NC3(CC(C)(C)C3)C(=O)N(C)[C@@H](C3CCCC3)C(=O)N(C)[C@H](C(=O)N(C)C)CC(=O)N[C@@H](CC(C)C)C(=O)N[C@@H]([C@@H](C)CC)C(=O)N(C)CC(=O)N(C)[C@H]3C/C=C\CCN(C3=O)[C@@H](Cc3ccc(C(F)(F)F)cc3)C(=O)N(C)CC(=O)N[C@@H](CCc3ccc(C(F)(F)F)c(Cl)c3)C(=O)N2C1 [PP3452] |  | 14.5 | 0.19 |  |  | A (a compound having 10 or more and less than 20 is denoted as A) | A (a compound having 10 or more and less than 20 is denoted as A) |  |  |
| CCC[C@H]1C(=O)N[C@@H](CC(C)C)C(=O)N(C2CC2)CC(=O)N(C)[C@H]2C/C=C\CCN(C2=O)[C@@H](Cc2ccc(C)cc2)C(=O)N(C)CC(=O)N[C@@H](CCc2ccc(C(F)(F)F)c(OC)c2)C(=O)N2C[C@H](OCC)C[C@H]2C(=O)NC2(CC(C)(C)C2)C(=O)N(C)[C@@H](C2CCCC2)C(=O)N(C)[C@H](C(=O)N(C)C)CC(=O)N1C [PP2510] | 3.9 | 180 |  |  |  | A (a compound having 10 or more and less than 20 is denoted as A) | B (a compound having 3 or more and less than 10 is denoted as B) |  |  |
| CCO[C@@H]1C[C@H]2C(=O)NC3(CCCC3)C(=O)N(C)[C@@H](C3CCCC3)C(=O)N(C)[C@H](C(=O)N3CCOCC3)CC(=O)N(C)[C@@H](CC)C(=O)N[C@@H]([C@@H](C)CC)C(=O)N(C)CC(=O)N(C)[C@H]3C[C@H](C)C(C)CN(C3=O)[C@@H](Cc3ccc(C(F)(F)F)cc3)C(=O)N(C)CC(=O)N[C@@H](CCc3cc(F)c(C(F)(F)F)c(F)c3)C(=O)N2C1 (stereo partly drawn) [PP1348] |  |  |  | 0.076 | 8.7 |  |  | B (a compound having 3 or more and less than 10 is denoted as B) | B (a compound having 3 or more and less than 10 is denoted as B) |
| CCCO[C@H](C)[C@@H]1NC(=O)[C@H](CC(C)C)N(C)C(=O)C[C@@H](C(=O)N(C)CC)N(C)C(=O)[C@H](C2CCCC2)N(C)C(=O)C2(CC(C)(C)C2)NC(=O)[C@@H]2C[C@H](C)CN2C(=O)[C@H](CCc2ccc(C(F)(F)F)c(OC)c2)NC(=O)CN(C)C(=O)[C@H](Cc2ccc(C)cc2)N2CC/C=C\C[C@@H](C2=O)N(C)C(=O)CN(C)C1=O [PP2416] | 0.29 | 33.1 |  |  |  | A (a compound having 10 or more and less than 20 is denoted as A) | B (a compound having 3 or more and less than 10 is denoted as B) |  |  |
| CCO[C@@H]1C[C@H]2C(=O)NC3(CCC3)C(=O)N(C)[C@@H](C3CCCC3)C(=O)N(C)[C@H](C(=O)N3CCOCC3)CC(=O)N(C)[C@@H](CC(C)C)C(=O)N[C@@H]([C@@H](C)CC)C(=O)N3CC[C@H]3C(=O)N(C)[C@H]3C[C@@H](C)[C@@H](C)CN(C3=O)[C@@H](Cc3ccc(C(F)(F)F)cc3)C(=O)N(C)CC(=O)N[C@@H](CCc3ccc(C(F)(F)F)c(Cl)c3)C(=O)N2C1 [PP1361] |  |  |  | 0.15 | 6.2 |  |  | A (a compound having 10 or more and less than 20 is denoted as A) | B (a compound having 3 or more and less than 10 is denoted as B) |
| CCO[C@@H]1C[C@H]2C(=O)NC3(CC(C)(C)C3)C(=O)N(C)[C@@H](C3CCCC3)C(=O)N(C)[C@H](C(=O)N(C)C)CC(=O)N(C)[C@@H](COC)C(=O)N[C@@H]([C@@H](C)CC)C(=O)N(C3CC3)CC(=O)N(C)[C@H]3C/C=C\CCN(C3=O)[C@@H](CC3CCCCC3)C(=O)N(C)CC(=O)N[C@@H](CCc3ccc(Cl)c(Cl)c3)C(=O)N2C1 [PP2563] | 2.3 | 108 |  |  |  | A (a compound having 10 or more and less than 20 is denoted as A) | A (a compound having 10 or more and less than 20 is denoted as A) |  |  |

Continued by falling IC50 ([3]; NCI-H441 cells, 4 days), values first:

| Kd ([1]; 1:1 binding model) [nM] | IC50 ([3]; NCI-H441 cells, 4 days) [nM] | Kd ([1]; Single Cycle Kinetics) [nM] | Kd [1, 6] [nM] | IC50 [3, 9] [nM] | SMILES | NRAS /KRAS [2, 4] | HRAS /KRAS (HRAS wild-type protein; [5]) | NRAS /KRAS [2, 7] | HRAS /KRAS (HRAS wild-type protein; [8]) |
| --- | --- | --- | --- | --- | --- | --- | --- | --- | --- |
|  | 10.2 | 0.48 |  |  | CCC[C@H]1C(=O)N[C@@H]([C@@H](C)CC)C(=O)N(C)CC(=O)N(C)[C@H]2C/C=C\CCN(C2=O)[C@@H](Cc2ccc(C(F)(F)F)cc2)C(=O)N(C)CC(=O)N[C@@H](CCc2ccc(C(F)(F)F)c(Cl)c2)C(=O)N2CC3(CC3)C[C@H]2C(=O)N(C)C2(CCC2)C(=O)N(C)[C@@H](C(CC)CC)C(=O)N(C)[C@H](C(=O)N(C)C)CC(=O)N1C [PP3297] | A (a compound having 10 or more and less than 20 is denoted as A) | B (a compound having 3 or more and less than 10 is denoted as B) |  |  |
|  | 9.9 | 0.18 |  |  | CCO[C@@H]1C[C@H]2C(=O)NC3(CC(C)(C)C3)C(=O)N(C)[C@@H](C3CCCC3)C(=O)N(C)[C@H](C(=O)N(C)CC)CC(=O)N(C)[C@@H]([C@H](C)OC)C(=O)N[C@@H]([C@@H](C)CC)C(=O)N(C)CC(=O)N(C)[C@H]3C/C=C\CCN(C3=O)[C@@H](Cc3ccc(C(F)(F)F)cc3)C(=O)N(C)CC(=O)N[C@@H](CCc3cc(F)c(C(F)(F)F)c(F)c3)C(=O)N2C1 [PP3217] | A (a compound having 10 or more and less than 20 is denoted as A) | B (a compound having 3 or more and less than 10 is denoted as B) |  |  |
|  | 6.9 | 0.24 |  |  | CCC[C@H]1C(=O)N[C@@H]([C@@H](C)CC)C(=O)N2CCC[C@H]2C(=O)N(C)[C@H]2C/C(F)=C\CCN(C2=O)[C@@H](Cc2ccc(C)cc2)C(=O)N(C)CC(=O)N[C@@H](CCc2ccc(C(F)(F)F)c(OC)c2)C(=O)N2C[C@H](OCC)C[C@H]2C(=O)N(C)C2(CCC2)C(=O)N(C)[C@@H](C2CCCC2)C(=O)N(C)[C@H](C(=O)N(C)C)CC(=O)N1C [PP3524] | B (a compound having 3 or more and less than 10 is denoted as B) | B (a compound having 3 or more and less than 10 is denoted as B) |  |  |
| 0.12 | 4.6 |  |  |  | CCC[C@H]1C(=O)N[C@@H]([C@@H](C)CC)C(=O)N(C)CC(=O)N(C)[C@H]2C/C=C\CCN(C2=O)[C@@H](Cc2ccc(C(F)(F)F)cc2)C(=O)N(C)CC(=O)N[C@@H](CCc2ccc(C(F)(F)F)c(OC)c2)C(=O)N2C[C@H](OCC)C[C@H]2C(=O)N(C)C2(CCC2)C(=O)N(C)[C@@H](C(CC)CC)C(=O)N(C)[C@H](C(=O)N(C)C)CC(=O)N1C [PP2382] | A (a compound having 10 or more and less than 20 is denoted as A) | A (a compound having 10 or more and less than 20 is denoted as A) |  |  |
|  | 1.9 | 0.021 |  |  | CCC[C@H]1C(=O)N[C@@H]([C@@H](C)CC)C(=O)N(C)CC(=O)N(C)[C@H]2C/C=C\CCN(C2=O)[C@@H](Cc2ccc(C)cc2)C(=O)N(C)CC(=O)N[C@@H](CCc2ccc(C(F)(F)F)c(OC)c2)C(=O)N2CC3(CC3)C[C@H]2C(=O)N(C)C2(CCC2)C(=O)N(C)[C@@H](C2CCCC2)C(=O)N(C)[C@H](C(=O)N(C)C)CC(=O)N1C [PP3290] | A (a compound having 10 or more and less than 20 is denoted as A) | B (a compound having 3 or more and less than 10 is denoted as B) |  |  |
